Source: ChEMBL document CHEMBL1154825, “Schweinfurthins I and J from Macaranga schweinfurthii” (2010)

What was measured:
Format in all cases: functional
M14 = experiment: Growth inhibition of human M14 cells; conditions: for CC50: read-out: pLC50 (the source's name) (converted); for TGI: read-out: pTGI (converted)
BT-549 = experiment: Growth inhibition of human BT549 cells; conditions: for TGI: read-out: pTGI (converted)
HCT-15 = experiment: Growth inhibition of human HCT15 cells; conditions: for TGI: read-out: pTGI (converted)
SW-620 = experiment: Growth inhibition of human SW620 cells; conditions: for TGI: read-out: pTGI (converted)
OVCAR-4 = experiment: Growth inhibition of human OVCAR4 cells; conditions: for CC50: read-out: pLC50 (the source's name) (converted); for TGI: read-out: pTGI (converted)
HT-29 = experiment: Growth inhibition of human HT-29 cells; conditions: for TGI: read-out: pTGI (converted)
A498 = experiment: Growth inhibition of human A498 cells; conditions: for TGI: read-out: pTGI (converted)
DU-145 = experiment: Growth inhibition of human DU145 cells; conditions: for TGI: read-out: pTGI (converted)
SR = experiment: Growth inhibition of human SR cells; conditions: for TGI: read-out: pTGI (converted)
MCF7 = experiment: Growth inhibition of human MCF7 cells; conditions: for TGI: read-out: pTGI (converted)
ACHN = experiment: Growth inhibition of human ACHN cells; conditions: for CC50: read-out: pLC50 (the source's name) (converted); for TGI: read-out: pTGI (converted)
EKVX = experiment: Growth inhibition of human EKVX cells; conditions: for TGI: read-out: pTGI (converted)
HCC 2998 = experiment: Growth inhibition of human HCC2998 cells; conditions: for TGI: read-out: pTGI (converted)
KM12 = experiment: Growth inhibition of human KM12 cells; conditions: for TGI: read-out: pTGI (converted)
SF-539 = experiment: Growth inhibition of human SF539 cells; conditions: for TGI: read-out: pTGI (converted)
Malme-3M = experiment: Growth inhibition of human MALME-3M cells; conditions: for TGI: read-out: pTGI (converted)
NCI-H460 = experiment: Growth inhibition of human NCI-H460 cells; conditions: for TGI: read-out: pTGI (converted)

CC(C)=CCC/C(C)=C/Cc1cc(/C=C/c2cc(O)cc(O)c2)ccc1O [SCHWEINFURTHIN I]
GI50 (M14): 12.9 µM | CC50 (M14): 53.7 µM | TGI (M14): 26.3 µM | GI50 (BT-549): 7.41 µM | LC50 (BT-549): 45.7 µM | TGI (BT-549): 20 µM | GI50 (HCT-15): 15.8 µM | LC50 (50% lethal concentration) (HCT-15): > 100 µM | TGI (HCT-15): 58.9 µM | GI50 (SW-620): 15.8 µM | LC50 (SW-620): > 100 µM | TGI (SW-620): 43.7 µM | GI50 (OVCAR-4): 10 µM | CC50 (OVCAR-4): 50.1 µM | TGI (OVCAR-4): 22.4 µM | GI50 (HT-29): 12.6 µM | LC50 (HT-29): 69.2 µM | TGI (HT-29): 29.5 µM | GI50 (A498): 5.01 µM | LC50 (A498): 47.9 µM | TGI (A498): 20.4 µM | GI50 (DU-145): 12.9 µM | LC50 (DU-145): 51.3 µM | TGI (DU-145): 25.7 µM | GI50 (SR): 11.2 µM | LC50 (SR): > 100 µM | TGI (SR): 43.7 µM | GI50 (MCF7): 10 µM | LC50 (MCF7): 63.1 µM | TGI (MCF7): 25.1 µM | GI50 (ACHN): 10 µM | CC50 (ACHN): 49 µM | TGI (ACHN): 22.4 µM | GI50 (EKVX): 10.5 µM | LC50 (EKVX): 50.1 µM | TGI (EKVX): 22.9 µM | GI50 (HCC 2998): 15.5 µM | LC50 (HCC 2998): 58.9 µM | TGI (HCC 2998): 30.2 µM | GI50 (KM12): 7.08 µM | LC50 (KM12): 49 µM | TGI (KM12): 20.4 µM | GI50 (SF-539): 5.13 µM | LC50 (SF-539): 47.9 µM | TGI (SF-539): 17.8 µM | GI50 (Malme-3M): 11.7 µM | LC50 (Malme-3M): 63.1 µM | TGI (Malme-3M): 26.9 µM | GI50 (NCI-H460): 10.2 µM | LC50 (NCI-H460): 85.1 µM | TGI (NCI-H460): 29.5 µM

CC(C)=CCC/C(C)=C/CC/C(C)=C/Cc1c(O)cc(/C=C/c2ccc(O)cc2)cc1O [SCHWEINFURTHIN J]
GI50 (M14): 2 µM | CC50 (M14): 8.51 µM | TGI (M14): 4.17 µM | GI50 (BT-549): 2.57 µM | LC50 (BT-549): 30.9 µM | TGI (BT-549): 8.91 µM | GI50 (HCT-15): 3.24 µM | LC50 (50% lethal concentration) (HCT-15): 64.6 µM | TGI (HCT-15): 16.6 µM | GI50 (SW-620): 3.16 µM | LC50 (SW-620): 66.1 µM | TGI (SW-620): 12 µM | GI50 (OVCAR-4): 3.89 µM | CC50 (OVCAR-4): 39.8 µM | TGI (OVCAR-4): 14.8 µM | GI50 (HT-29): 3.98 µM | LC50 (HT-29): 49 µM | TGI (HT-29): 15.8 µM | GI50 (A498): 2.82 µM | LC50 (A498): 45.7 µM | TGI (A498): 16.6 µM | GI50 (DU-145): 3.72 µM | LC50 (DU-145): 35.5 µM | TGI (DU-145): 12.9 µM | GI50 (SR): 4.27 µM | LC50 (SR): > 100 µM | TGI (SR): 29.5 µM | GI50 (MCF7): 2.57 µM | LC50 (MCF7): 43.7 µM | TGI (MCF7): 11.2 µM | GI50 (ACHN): 3.8 µM | CC50 (ACHN): 38.9 µM | TGI (ACHN): 13.5 µM | GI50 (EKVX): 4.27 µM | LC50 (EKVX): 46.8 µM | TGI (EKVX): 16.6 µM | GI50 (HCC 2998): 2.69 µM | LC50 (HCC 2998): 21.4 µM | TGI (HCC 2998): 6.31 µM | GI50 (KM12): 2.75 µM | LC50 (KM12): 31.6 µM | TGI (KM12): 8.91 µM | GI50 (SF-539): 2.51 µM | LC50 (SF-539): 18.6 µM | TGI (SF-539): 5.62 µM | GI50 (Malme-3M): 2.95 µM | LC50 (Malme-3M): 39.8 µM | TGI (Malme-3M): 8.91 µM | GI50 (NCI-H460): 3.24 µM | LC50 (NCI-H460): 70.8 µM | TGI (NCI-H460): 12 µM
